Assay [1] concerns β2ARs in permeabilized A431 cells. Description: Desensitization of β2ARs in permeabilized A431 cells. Format: cell-based, human.
Assay [2] has the same test system. As to the kind of experiment: Phosphorylation of β2ARs in permeabilized A431 cells. Format: cell-based, human. The conditions noted are these: 1 μM heparin. The method, then:
FIG. 8. Phosphorylation of β2ARs in permeabilized A431 cells. […] FIG. 8A: Autoradiogram obtained after a 10-day exposure at −70° C. FIG. 8B: Transverse densitometric scan of the autoradiogram.
β2ARs in permeabilized A431 cells were phosphorylated as follows. Permeabilized cells (4×10^8) in 10 ml of KG-A buffer containing 1 mCi (1 Ci=37 GBq) of [γ-^32P]ATP were incubated with or without 1 μM (−)-isoproterenol (and other compounds as indicated) for 10 min at 37° C. All buffers used in these experiments contained 5 μg of soybean tryspin inhibitor, 5 μg of leupeptin, and 10 μg of benzamidine per ml and 0.1 mM phenylmethylsulfonyl fluoride. […] After three identical washing steps, crude membranes were prepared as above.
Aliquots of the samples (≈60 fmol of β2ARs) were desalted over Sephadex G-50 and incubated for 2 hr at 20° C. with 200 pM of the ligand with or without 10 μM alprenolol. Free ligand was removed by desalting as above, and the samples were irradiated with UV light for 3 min. The samples were loaded on the same gel as the samples described above.

From patent US6605424B1, “Method of detecting inhibitors of agonist-specific desensitization” (Duke University, priority 1989, dated 2003) come the findings set out here.

Several values for one entry are separate records, joined by “and”; a condition that tells them apart may be missing. Identical values can stand only once.

Regarding heparin, the “Inhibition of Desensitization, %” value in assay [1] (0.1 μM) worked out at 102 ± 16%. Also, the “effect on time course of desensitization” value in assay [1] (100 nM heparin, 1 μM (−)-isoproterenol) is listed as “almost completely abolished”. The IC50 (commonly the midpoint of a concentration-inhibition curve) in assay [1] (1 μM (−)-isoproterenol, 10 min, 37° C., read-out: IC50, inhibition of desensitization) is 21 nM and 20 nM. Also, the “extent of inhibition of desensitization” value in assay [1] (at concentrations above 100 nM) is listed as “virtually complete”. The “effect on basal phosphorylation of β2ARs” value in assay [2] is listed as “not affecting basal phosphorylation”. Moreover, the “reduction of isoproterenol-induced phosphorylation of β2ARs” value in assay [2] (1 μM isoproterenol, 10 min, three experiments) is 50-80%.
